Laboratory results from ChEMBL document CHEMBL2177024 (J Med Chem, 2012).

Experiments:
Beta-secretase 1 [1] = biological target: T1, Beta-secretase 1 (Homo sapiens, UniProt P56817)
Cathepsin D = Cathepsin D (Homo sapiens, UniProt P07339)
Description: Inhibition of human cathepsin D

Beta-secretase 1 [2] = biological target: T1, Beta-secretase 1; remark: listed apart in the source
Description: Inhibition of BACE1 in human neuroblastoma cells

T1 sequence (P56817 whole entry): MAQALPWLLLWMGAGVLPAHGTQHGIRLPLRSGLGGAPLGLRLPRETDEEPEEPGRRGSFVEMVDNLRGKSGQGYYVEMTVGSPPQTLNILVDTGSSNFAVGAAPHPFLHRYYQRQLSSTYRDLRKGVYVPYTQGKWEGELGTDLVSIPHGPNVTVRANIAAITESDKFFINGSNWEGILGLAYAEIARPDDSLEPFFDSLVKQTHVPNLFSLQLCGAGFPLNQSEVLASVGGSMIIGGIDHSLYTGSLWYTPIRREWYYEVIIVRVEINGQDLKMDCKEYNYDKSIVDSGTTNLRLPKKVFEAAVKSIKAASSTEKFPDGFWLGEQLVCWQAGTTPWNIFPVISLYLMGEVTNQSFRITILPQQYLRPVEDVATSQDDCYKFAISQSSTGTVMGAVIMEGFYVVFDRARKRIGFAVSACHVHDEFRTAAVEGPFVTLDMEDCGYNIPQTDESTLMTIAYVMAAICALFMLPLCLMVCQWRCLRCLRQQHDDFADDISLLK
Cathepsin D, sequence (P07339 65-162 limits assumed): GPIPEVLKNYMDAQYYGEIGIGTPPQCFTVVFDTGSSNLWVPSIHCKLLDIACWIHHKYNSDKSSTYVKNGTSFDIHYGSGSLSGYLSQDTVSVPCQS
Cathepsin D, sequence (P07339 169-412 limits assumed): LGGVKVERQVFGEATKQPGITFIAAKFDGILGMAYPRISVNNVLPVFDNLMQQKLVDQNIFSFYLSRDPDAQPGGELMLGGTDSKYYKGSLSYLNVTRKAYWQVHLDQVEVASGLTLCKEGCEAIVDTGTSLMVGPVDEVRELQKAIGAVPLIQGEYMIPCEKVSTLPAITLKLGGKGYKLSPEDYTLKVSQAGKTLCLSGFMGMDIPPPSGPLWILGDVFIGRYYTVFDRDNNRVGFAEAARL

| Ki (Beta-secretase 1 [1]) | Ki (Cathepsin D) | IC50 (Beta-secretase 1 [2]) | Compound |
| --- | --- | --- | --- |
| > 1 µM | – | – | CC(C)CNC[C@@H](NC[C@H](Cc1ccccc1)NC(=O)c1cc(C(=O)N[C@H](C)c2ccccc2)cc(N(C)S(C)(=O)=O)c1)[C@H](C)O |
| 0.00047 µM | 2 µM | 0.014 µM | CCC[C@H](O)[C@H](NC[C@H](Cc1ccccc1)NC(=O)c1cc2c3c(c1)c(CC)cn3CC1(CC1)S(=O)(=O)N2C)C(=O)NC(C)C |
